Reference: article PMC4664966, “Discovery and characterization of novel inhibitors of the sodium-coupled citrate transporter (NaCT or SLC13A5)” (Scientific Reports, 2015)

Columns and labels:
[1] = target: Cytochrome P450 2C8 (CYP2C8) (Homo sapiens, UniProt P10632); test: Selectivity data (Table S1); type: in vitro ADME
CYP2C8 = CYP2C8 (Homo sapiens, UniProt P10632); test: Selectivity data (Table S1); type: in vitro ADME; settings: 3 µM
[2] = target: Adenosine receptor A1 (ADORA1) (Homo sapiens, UniProt P30542); test: Selectivity data (Table S1); type: binding
Chain of Adenosine receptor A1 (ADORA1) (P30542 whole entry): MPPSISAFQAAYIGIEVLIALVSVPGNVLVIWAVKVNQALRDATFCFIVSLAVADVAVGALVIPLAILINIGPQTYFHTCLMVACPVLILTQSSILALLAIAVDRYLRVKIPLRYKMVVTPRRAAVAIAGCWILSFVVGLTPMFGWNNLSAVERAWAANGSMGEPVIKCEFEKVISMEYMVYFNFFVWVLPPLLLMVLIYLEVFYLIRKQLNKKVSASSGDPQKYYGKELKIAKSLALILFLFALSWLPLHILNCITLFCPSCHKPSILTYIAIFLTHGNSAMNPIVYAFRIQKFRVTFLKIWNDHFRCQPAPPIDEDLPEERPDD

[3] = target: Histamine receptor 2 (H2) (Homo sapiens, UniProt P25021); test: Selectivity data (Table S1); type: binding
Chain of Histamine receptor 2 (H2) (P25021 whole entry): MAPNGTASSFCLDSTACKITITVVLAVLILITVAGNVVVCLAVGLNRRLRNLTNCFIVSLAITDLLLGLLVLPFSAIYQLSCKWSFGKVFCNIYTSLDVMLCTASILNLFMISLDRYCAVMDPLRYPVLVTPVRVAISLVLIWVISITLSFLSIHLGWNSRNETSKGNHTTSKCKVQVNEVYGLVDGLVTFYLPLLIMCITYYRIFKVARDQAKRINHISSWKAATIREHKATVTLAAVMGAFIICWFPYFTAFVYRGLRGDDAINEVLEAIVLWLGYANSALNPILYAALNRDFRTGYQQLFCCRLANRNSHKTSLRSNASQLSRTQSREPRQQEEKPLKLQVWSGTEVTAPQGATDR

[4] = target: Adrenergic receptor, alpha-2B (ADRA2B) (Homo sapiens, UniProt P18089); test: Selectivity data (Table S1); type: binding
Chain of Adrenergic receptor, alpha-2B (ADRA2B) (P18089 whole entry): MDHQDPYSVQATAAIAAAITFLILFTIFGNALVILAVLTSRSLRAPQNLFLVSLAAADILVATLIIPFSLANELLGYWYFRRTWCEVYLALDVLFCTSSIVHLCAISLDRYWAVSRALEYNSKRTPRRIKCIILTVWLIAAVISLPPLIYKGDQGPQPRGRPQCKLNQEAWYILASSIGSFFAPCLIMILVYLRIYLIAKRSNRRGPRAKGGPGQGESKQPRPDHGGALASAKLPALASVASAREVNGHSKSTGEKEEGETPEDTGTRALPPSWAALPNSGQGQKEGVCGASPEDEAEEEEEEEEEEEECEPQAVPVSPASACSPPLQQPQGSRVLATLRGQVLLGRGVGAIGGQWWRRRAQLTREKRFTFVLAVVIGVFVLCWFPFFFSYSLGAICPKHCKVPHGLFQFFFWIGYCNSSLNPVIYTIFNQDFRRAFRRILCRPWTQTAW

[5] = target: Histamine receptor 1 (H1) (Homo sapiens, UniProt P35367); test: Selectivity data (Table S1); type: binding
Chain of Histamine receptor 1 (H1) (P35367 whole entry): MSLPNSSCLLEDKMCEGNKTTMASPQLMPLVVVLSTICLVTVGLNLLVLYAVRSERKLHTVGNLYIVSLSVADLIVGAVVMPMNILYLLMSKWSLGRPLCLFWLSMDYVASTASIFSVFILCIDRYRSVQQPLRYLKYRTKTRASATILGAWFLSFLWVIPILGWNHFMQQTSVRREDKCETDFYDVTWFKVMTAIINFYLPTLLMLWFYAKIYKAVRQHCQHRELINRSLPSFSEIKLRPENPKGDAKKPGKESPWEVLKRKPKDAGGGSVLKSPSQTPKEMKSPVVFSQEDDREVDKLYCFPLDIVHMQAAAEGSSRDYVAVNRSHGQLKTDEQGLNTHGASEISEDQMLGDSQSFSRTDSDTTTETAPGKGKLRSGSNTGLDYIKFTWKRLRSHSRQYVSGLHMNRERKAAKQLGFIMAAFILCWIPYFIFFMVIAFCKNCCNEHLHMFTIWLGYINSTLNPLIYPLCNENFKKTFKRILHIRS

[6] = target: Muscarinic acetylcholine receptor 1 (M1) (Homo sapiens, UniProt P11229); test: Selectivity data (Table S1); type: binding
Chain of Muscarinic acetylcholine receptor 1 (M1) (P11229 whole entry): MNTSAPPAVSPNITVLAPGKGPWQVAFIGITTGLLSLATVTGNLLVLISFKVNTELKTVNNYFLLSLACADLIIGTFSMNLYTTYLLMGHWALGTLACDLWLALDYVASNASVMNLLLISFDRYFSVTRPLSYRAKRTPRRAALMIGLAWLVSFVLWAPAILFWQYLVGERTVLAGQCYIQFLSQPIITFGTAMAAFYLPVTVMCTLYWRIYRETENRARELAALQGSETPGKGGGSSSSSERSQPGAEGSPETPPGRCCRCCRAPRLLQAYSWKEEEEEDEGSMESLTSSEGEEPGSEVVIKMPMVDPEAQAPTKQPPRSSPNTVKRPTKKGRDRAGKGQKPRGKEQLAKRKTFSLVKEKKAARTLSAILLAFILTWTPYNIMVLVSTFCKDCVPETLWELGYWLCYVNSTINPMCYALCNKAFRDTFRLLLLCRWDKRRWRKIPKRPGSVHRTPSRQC

[7] = target: Monoamine oxidase A (MAOA) (Homo sapiens, UniProt P21397); test: Selectivity data (Table S1); type: biochemical
Chain of Monoamine oxidase A (MAOA) (P21397 whole entry): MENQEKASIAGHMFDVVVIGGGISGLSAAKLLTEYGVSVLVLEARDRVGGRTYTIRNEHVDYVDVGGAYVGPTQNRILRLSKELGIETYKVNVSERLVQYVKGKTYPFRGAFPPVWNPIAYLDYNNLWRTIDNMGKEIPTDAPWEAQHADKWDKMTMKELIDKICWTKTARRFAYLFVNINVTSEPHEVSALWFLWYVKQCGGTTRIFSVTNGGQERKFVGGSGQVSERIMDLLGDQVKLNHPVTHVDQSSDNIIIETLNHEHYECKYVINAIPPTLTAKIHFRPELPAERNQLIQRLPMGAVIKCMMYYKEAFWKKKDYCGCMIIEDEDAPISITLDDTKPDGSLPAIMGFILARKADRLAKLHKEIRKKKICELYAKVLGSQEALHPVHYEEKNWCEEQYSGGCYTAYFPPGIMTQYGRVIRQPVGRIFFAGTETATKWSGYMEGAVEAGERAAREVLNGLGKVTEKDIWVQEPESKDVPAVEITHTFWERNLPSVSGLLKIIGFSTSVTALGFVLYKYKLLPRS

[8] = target: Acetylcholinesterase (ACHE) (Homo sapiens, UniProt P22303); test: Selectivity data (Table S1); type: biochemical
[9] = target: Diacylglycerol acyltransferase 1 (DGAT1) (Homo sapiens, UniProt O75907); test: Selectivity data (Table S1); type: biochemical
Chain of Diacylglycerol acyltransferase 1 (DGAT1) (O75907 whole entry, species assumed): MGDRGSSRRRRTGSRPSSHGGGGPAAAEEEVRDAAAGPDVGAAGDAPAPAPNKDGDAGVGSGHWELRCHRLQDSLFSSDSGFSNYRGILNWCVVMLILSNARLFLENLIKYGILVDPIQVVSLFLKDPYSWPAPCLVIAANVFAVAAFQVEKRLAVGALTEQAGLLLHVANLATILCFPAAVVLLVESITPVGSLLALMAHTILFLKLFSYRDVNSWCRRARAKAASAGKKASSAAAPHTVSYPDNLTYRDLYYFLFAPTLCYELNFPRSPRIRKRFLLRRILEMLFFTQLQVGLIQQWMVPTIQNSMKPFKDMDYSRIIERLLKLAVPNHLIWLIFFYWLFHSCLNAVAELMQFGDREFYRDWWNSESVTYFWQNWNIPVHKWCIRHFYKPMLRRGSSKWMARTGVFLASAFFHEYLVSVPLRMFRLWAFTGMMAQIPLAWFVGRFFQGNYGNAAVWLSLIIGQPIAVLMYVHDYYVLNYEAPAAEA

[10] = target: Abelson murine leukemia viral oncogene homolog 1 (ABL1) (Homo sapiens, UniProt P00519); test: Selectivity data (Table S1); type: biochemical
NaDC1 (SLC13A2) = target: T1, NaDC1 (SLC13A2) (Homo sapiens, UniProt Q13183); test: Inhibition of citrate or succinate uptake in HEKNaDC1 cells; type: cell-based
T1 construct: host or cells: HEK-293, transient (Fugene HD)
T1 sequence (Q13183 1-592): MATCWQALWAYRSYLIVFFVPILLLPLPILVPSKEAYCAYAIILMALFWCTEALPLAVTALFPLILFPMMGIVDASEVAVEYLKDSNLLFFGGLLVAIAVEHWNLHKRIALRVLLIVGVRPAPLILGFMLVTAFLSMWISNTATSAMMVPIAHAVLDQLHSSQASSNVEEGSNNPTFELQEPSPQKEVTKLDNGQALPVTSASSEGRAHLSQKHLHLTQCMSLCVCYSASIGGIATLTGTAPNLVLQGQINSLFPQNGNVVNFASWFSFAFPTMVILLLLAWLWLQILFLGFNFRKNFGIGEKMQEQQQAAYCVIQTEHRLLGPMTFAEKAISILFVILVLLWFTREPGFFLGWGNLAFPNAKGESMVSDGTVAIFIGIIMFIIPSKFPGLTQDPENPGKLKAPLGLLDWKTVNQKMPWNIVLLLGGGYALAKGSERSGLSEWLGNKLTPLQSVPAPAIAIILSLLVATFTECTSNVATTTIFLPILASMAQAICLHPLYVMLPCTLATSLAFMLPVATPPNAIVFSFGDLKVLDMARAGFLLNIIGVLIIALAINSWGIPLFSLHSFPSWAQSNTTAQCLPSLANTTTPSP
Description: Protocols to generate the stable cell line overexpressing NaCT or cell transfection with SLC13A2 or SLC13A3 can be found in the supporting information. HEK-293 cells stably transfected with the human sodium Citrate transporter SLC13A5 or transiently transfected with the human SLC13A2 or SLC13A3 transporter were removed from the flasks with dissociation buffer and re-suspended in an equal volume of growth media (DMEM, High Glucose supplemented with 10% heat inactivated fetal bovine serum and 500 μg/ml Geneticin). For the transient transfections, Geneticin was eliminated from the media. Cell suspensions were centrifuged at 1,000 rpm for approximately 5 minutes. Resulting cell pellets were re-suspended in growth media and placed in a 37 °C water bath for approximately 10 minutes prior to a final spin at 1,000 rpm. Following this spin the resulting cell pellets were re-suspended in assay buffer, 142 mM NaCl (or 142 mM choline chloride), 5 mM KCl, 1.2 mM MgSO4, 1.5 mM CaCl, 5 mM glucose and 25 mM HEPES pH 7.4. Cell suspensions were counted and the concentration adjusted as needed with assay buffer to 2e[6] viable cells /mL. 20 μL of cell suspension were added to 384-well cyotstar-T plates followed by the addition of 5 μL of 10× concentration of compound. Cells and compound were incubated at 37 °C for approximately 30 minutes prior to the addition of 25 μL of 300 μM citric acid (16 μM radiolabeled [^14C]-citric acid and 284 μM cold citric acid) to make a 150 μM final concentration of citric acid or 21 μM [^14C]-succinic acid. After substrate addition, the uptake of radioactivity was monitored on Perkin Elmer Microbeta plate reader. Data from reads between 45–90 minutes was used to assess the ability of test compounds to inhibit the uptake of citric or succinic acid. […]
were plated, and incubated for 48 hours. Following the incubation, NaDC1 and NaDC3 assays were executed identical to the procedure for NaCT. […]
The solution was heated to reflux until the total volume was reduced to ~25 mL. […]

[11] = target: Serotonin receptor 4e (5-HT4e) (Homo sapiens, UniProt Q13639); test: Selectivity data (Table S1); type: binding
Chain of Serotonin receptor 4e (5-HT4e) (Q13639 1-378 isoform Q13639-5): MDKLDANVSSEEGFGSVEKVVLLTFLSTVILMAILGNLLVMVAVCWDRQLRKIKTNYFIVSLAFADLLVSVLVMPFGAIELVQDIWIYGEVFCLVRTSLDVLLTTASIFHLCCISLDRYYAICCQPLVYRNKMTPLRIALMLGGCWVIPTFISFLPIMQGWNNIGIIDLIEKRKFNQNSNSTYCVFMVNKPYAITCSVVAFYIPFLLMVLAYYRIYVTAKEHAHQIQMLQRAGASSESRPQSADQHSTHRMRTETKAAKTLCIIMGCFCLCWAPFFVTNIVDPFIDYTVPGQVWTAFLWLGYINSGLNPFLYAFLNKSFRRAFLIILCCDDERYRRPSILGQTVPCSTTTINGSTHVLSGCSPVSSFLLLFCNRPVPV

[12] = target: Opioid receptor, mu (MOP) (Homo sapiens, UniProt P35372); test: Selectivity data (Table S1); type: binding
[13] = target: Serotonin receptor 1B (5-HT1B) (Homo sapiens, UniProt P28222); test: Selectivity data (Table S1); type: binding
pKa = type: physicochemical
[14] = target: Cannabinoid receptor 1 (CB1) (Homo sapiens, UniProt P21554); test: Selectivity data (Table S1); type: binding
Chain of Cannabinoid receptor 1 (CB1) (P21554 whole entry): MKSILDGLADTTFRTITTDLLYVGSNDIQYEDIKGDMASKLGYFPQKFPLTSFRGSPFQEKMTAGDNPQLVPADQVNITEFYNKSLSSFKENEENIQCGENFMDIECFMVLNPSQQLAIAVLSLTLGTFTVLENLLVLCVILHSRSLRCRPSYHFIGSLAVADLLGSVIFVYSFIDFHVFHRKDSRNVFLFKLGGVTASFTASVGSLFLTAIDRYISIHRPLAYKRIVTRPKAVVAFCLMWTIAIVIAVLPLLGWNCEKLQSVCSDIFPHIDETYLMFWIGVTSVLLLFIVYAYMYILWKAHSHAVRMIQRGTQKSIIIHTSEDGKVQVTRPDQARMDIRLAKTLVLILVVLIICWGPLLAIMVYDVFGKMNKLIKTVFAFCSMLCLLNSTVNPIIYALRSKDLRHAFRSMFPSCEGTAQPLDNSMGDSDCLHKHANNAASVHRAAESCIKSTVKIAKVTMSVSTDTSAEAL

[15] = target: Phosphodiesterase 4D (PDE4D) (Homo sapiens, UniProt Q08499); test: Selectivity data (Table S1); type: biochemical
Chain of Phosphodiesterase 4D (PDE4D) (Q08499 whole entry): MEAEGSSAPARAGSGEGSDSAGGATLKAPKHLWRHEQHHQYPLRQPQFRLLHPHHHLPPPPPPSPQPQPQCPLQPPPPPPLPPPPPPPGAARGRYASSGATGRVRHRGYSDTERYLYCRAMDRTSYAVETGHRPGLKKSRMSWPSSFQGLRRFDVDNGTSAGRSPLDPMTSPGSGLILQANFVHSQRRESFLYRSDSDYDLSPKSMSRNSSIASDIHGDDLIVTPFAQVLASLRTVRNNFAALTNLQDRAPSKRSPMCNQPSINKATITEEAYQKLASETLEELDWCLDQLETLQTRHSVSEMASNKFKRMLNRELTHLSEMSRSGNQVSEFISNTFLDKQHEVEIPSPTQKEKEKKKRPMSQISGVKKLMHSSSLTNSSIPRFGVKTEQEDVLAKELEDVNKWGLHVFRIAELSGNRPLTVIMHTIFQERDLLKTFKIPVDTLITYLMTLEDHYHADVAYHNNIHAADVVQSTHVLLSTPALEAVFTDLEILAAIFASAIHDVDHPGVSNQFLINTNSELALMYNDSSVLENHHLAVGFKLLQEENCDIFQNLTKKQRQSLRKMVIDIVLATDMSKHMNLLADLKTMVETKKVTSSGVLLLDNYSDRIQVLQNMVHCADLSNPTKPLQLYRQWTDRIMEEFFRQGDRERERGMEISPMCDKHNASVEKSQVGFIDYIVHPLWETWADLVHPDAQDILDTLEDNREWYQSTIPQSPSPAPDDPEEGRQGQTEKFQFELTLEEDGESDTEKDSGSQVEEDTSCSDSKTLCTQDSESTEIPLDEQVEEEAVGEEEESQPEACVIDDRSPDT

[16] = target: Monoacylglycerol acyltransferase 1 (MGAT1) (Homo sapiens, UniProt Q96PD6); test: Selectivity data (Table S1); type: biochemical

CC(C)(C)c1ccc(CC[C@@](O)(CC(=O)O)C(=O)O)cc1 [Compound 2]
3.1: pKa (pKa)
no significant interaction/inhibition: interaction/inhibition of CYP2C8 [1]
> 100 µM: IC50 (NaDC1 (SLC13A2); compound 4: mean of 2 replicates)
No measurable inhibition: inhibition of citrate or succinate uptake, NaDC1 (NaDC1 (SLC13A2); HEK-293-derived system overexpressing NaDC1)
< 10%: inhibition at 3 µM (CYP2C8) | inhibition at 100 µM [2] | inhibition at 100 µM [3] | inhibition at 100 µM [4] | inhibition at 100 µM [5] | inhibition at 100 µM [6] | inhibition at 100 µM [7] | inhibition at 100 µM [8] | inhibition at 100 µM [10] | inhibition at 100 µM [11] | inhibition at 100 µM [12] | inhibition at 100 µM [13] | inhibition at 100 µM [14] | inhibition at 100 µM [15]
> 50 µM: IC50 [9] | IC50 [16]
